# According to PubChem BioAssay (NCI):
#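 At the GI50, growth is halved. At the TGI there is no net growth.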
# What was measured:
# Assay in all cases: DTP human tumour cell line panel, 384-well format
# SF-295 CNS = system: SF-295 CNS
# MOLT-4 leukemia = system: MOLT-4 leukemia
# HCT-15 colon = system: HCT-15 colon
# A498 renal = system: A498 renal
# A549 NSCLC = system: A549 NSCLC
# RPMI-8226 leukemia = system: RPMI-8226 leukemia
# IGROV1 ovarian = system: IGROV1 ovarian
# SR leukemia = system: SR leukemia
# LOX IMVI melanoma = system: LOX IMVI melanoma
# MDA-MB-435 melanoma = system: MDA-MB-435 melanoma
# T-47D breast = system: T-47D breast
# CAKI-1 renal = system: CAKI-1 renal
# SK-MEL-28 melanoma = system: SK-MEL-28 melanoma
# K-562 leukemia = system: K-562 leukemia
# SW-620 colon = system: SW-620 colon
# COLO 205 colon = system: COLO 205 colon
# NCI-H23 lung = system: NCI-H23 lung
# BT-549 breast = system: BT-549 breast
# SF-268 CNS = system: SF-268 CNS
# UACC-62 melanoma = system: UACC-62 melanoma
# SK-MEL-5 melanoma = system: SK-MEL-5 melanoma
# MCF7 breast = system: MCF7 breast
# MDA-MB-468 breast = system: MDA-MB-468 breast
# HT29 colon = system: HT29 colon
# HCC-2998 colon = system: HCC-2998 colon
# OVCAR-3 ovarian = system: OVCAR-3 ovarian
# SF-539 CNS = system: SF-539 CNS
# SK-MEL-2 melanoma = system: SK-MEL-2 melanoma
# M14 melanoma = system: M14 melanoma
# NCI/ADR-RES ovarian = system: NCI/ADR-RES ovarian
# OVCAR-8 ovarian = system: OVCAR-8 ovarian
# SK-OV-3 ovarian = system: SK-OV-3 ovarian
# HCT-116 colon = system: HCT-116 colon
# OVCAR-5 ovarian = system: OVCAR-5 ovarian
# 786-0 renal = system: 786-0 renal
# U251 glioblastoma = system: U251 glioblastoma
# SN12C renal = system: SN12C renal
# UO-31 renal = system: UO-31 renal
# MDA-MB-231 breast = system: MDA-MB-231 breast
# MALME-3M melanoma = system: MALME-3M melanoma
# KM12 colon = system: KM12 colon
# RXF 393 renal = system: RXF 393 renal
# HOP-92 NSCLC = system: HOP-92 NSCLC
# PC-3 prostate = system: PC-3 prostate
# NCI-H460 NSCLC = system: NCI-H460 NSCLC
# NCI-H226 lung = system: NCI-H226 lung
# SNB-19 CNS = system: SNB-19 CNS
# ACHN renal = system: ACHN renal
# NCI-H522 lung = system: NCI-H522 lung
# OVCAR-4 ovarian = system: OVCAR-4 ovarian
# CCRF-CEM leukemia = system: CCRF-CEM leukemia
# DU-145 prostate = system: DU-145 prostate
# HL-60(TB) leukemia = system: HL-60(TB) leukemia
# TK-10 renal = system: TK-10 renal
# NCI-H322M lung = system: NCI-H322M lung
# HOP-62 NSCLC = system: HOP-62 NSCLC
# UACC-257 melanoma = system: UACC-257 melanoma
smiles,measurement,setting,value
Cc1c(N(C(=O)c2cc(-c3cc(Cl)ccc3C(=O)N3Cc4ccccc4C[C@H]3CN3CCOCC3)n(C)c2C)c2ccc(O)cc2)cc(C#N)n1C,GI50,SF-295 CNS,13.4 µM
same,TGI,SF-295 CNS,62.6 µM
same,GI50,MOLT-4 leukemia,1.61 µM
same,TGI,MOLT-4 leukemia,2.97 µM
same,GI50,HCT-15 colon,9.36 µM
same,TGI,HCT-15 colon,24.1 µM
same,GI50,A498 renal,4.79 µM
same,TGI,A498 renal,19 µM
same,GI50,A549 NSCLC,7.07 µM
same,TGI,A549 NSCLC,> 100 µM
same,GI50,RPMI-8226 leukemia,1.26 µM
same,TGI,RPMI-8226 leukemia,2.52 µM
same,GI50,IGROV1 ovarian,13.5 µM
same,TGI,IGROV1 ovarian,> 100 µM
same,GI50,SR leukemia,1.46 µM
same,TGI,SR leukemia,2.87 µM
same,GI50,LOX IMVI melanoma,10.4 µM
same,TGI,LOX IMVI melanoma,33 µM
same,GI50,MDA-MB-435 melanoma,5.21 µM
same,TGI,MDA-MB-435 melanoma,19.3 µM
same,GI50,T-47D breast,6.85 µM
same,TGI,T-47D breast,> 100 µM
same,GI50,CAKI-1 renal,9.01 µM
same,TGI,CAKI-1 renal,66.1 µM
same,GI50,SK-MEL-28 melanoma,17.1 µM
same,TGI,SK-MEL-28 melanoma,67.1 µM
same,GI50,K-562 leukemia,4.85 µM
same,TGI,K-562 leukemia,38.2 µM
same,GI50,SW-620 colon,11.3 µM
same,TGI,SW-620 colon,25.7 µM
same,GI50,COLO 205 colon,25.5 µM
same,TGI,COLO 205 colon,> 100 µM
same,GI50,NCI-H23 lung,9.38 µM
same,TGI,NCI-H23 lung,> 100 µM
same,GI50,BT-549 breast,12.5 µM
same,TGI,BT-549 breast,30.9 µM
same,GI50,SF-268 CNS,22 µM
same,TGI,SF-268 CNS,> 100 µM
same,GI50,UACC-62 melanoma,6.3 µM
same,TGI,UACC-62 melanoma,27.3 µM
same,GI50,SK-MEL-5 melanoma,9.04 µM
same,TGI,SK-MEL-5 melanoma,28.4 µM
same,GI50,MCF7 breast,11.4 µM
same,TGI,MCF7 breast,> 100 µM
same,GI50,MDA-MB-468 breast,2.84 µM
same,TGI,MDA-MB-468 breast,7.25 µM
same,GI50,HT29 colon,10.9 µM
same,TGI,HT29 colon,43.6 µM
same,GI50,HCC-2998 colon,3.35 µM
same,TGI,HCC-2998 colon,8.64 µM
same,GI50,OVCAR-3 ovarian,3.87 µM
same,TGI,OVCAR-3 ovarian,18.9 µM
same,GI50,SF-539 CNS,9.73 µM
same,TGI,SF-539 CNS,> 100 µM
same,GI50,SK-MEL-2 melanoma,5.97 µM
same,TGI,SK-MEL-2 melanoma,20 µM
same,GI50,M14 melanoma,12 µM
same,TGI,M14 melanoma,34.1 µM
same,GI50,NCI/ADR-RES ovarian,50.5 µM
same,TGI,NCI/ADR-RES ovarian,> 100 µM
same,GI50,OVCAR-8 ovarian,8.66 µM
same,TGI,OVCAR-8 ovarian,> 100 µM
same,GI50,SK-OV-3 ovarian,11.5 µM
same,TGI,SK-OV-3 ovarian,45.2 µM
same,GI50,HCT-116 colon,4.12 µM
same,TGI,HCT-116 colon,> 100 µM
same,GI50,OVCAR-5 ovarian,28 µM
same,TGI,OVCAR-5 ovarian,> 100 µM
same,GI50,786-0 renal,6.22 µM
same,TGI,786-0 renal,30 µM
same,GI50,U251 glioblastoma,7.69 µM
same,TGI,U251 glioblastoma,> 100 µM
same,GI50,SN12C renal,9.51 µM
same,TGI,SN12C renal,> 100 µM
same,GI50,UO-31 renal,10.9 µM
same,TGI,UO-31 renal,> 100 µM
same,GI50,MDA-MB-231 breast,3.74 µM
same,TGI,MDA-MB-231 breast,14.1 µM
same,GI50,MALME-3M melanoma,19.2 µM
same,TGI,MALME-3M melanoma,47.2 µM
same,GI50,KM12 colon,16.1 µM
same,TGI,KM12 colon,> 100 µM
same,GI50,RXF 393 renal,0.886 µM
same,TGI,RXF 393 renal,3.92 µM
same,GI50,HOP-92 NSCLC,2.58 µM
same,TGI,HOP-92 NSCLC,7.15 µM
same,GI50,PC-3 prostate,7.32 µM
same,TGI,PC-3 prostate,65.6 µM
same,GI50,NCI-H460 NSCLC,6.2 µM
same,TGI,NCI-H460 NSCLC,> 100 µM
same,GI50,NCI-H226 lung,9.16 µM
same,TGI,NCI-H226 lung,22.2 µM
same,GI50,SNB-19 CNS,7.72 µM
same,TGI,SNB-19 CNS,> 100 µM
same,GI50,ACHN renal,7.31 µM
same,TGI,ACHN renal,> 100 µM
same,GI50,NCI-H522 lung,12.8 µM
same,TGI,NCI-H522 lung,36.8 µM
same,GI50,OVCAR-4 ovarian,5.99 µM
same,TGI,OVCAR-4 ovarian,37.5 µM
same,GI50,CCRF-CEM leukemia,1.68 µM
same,TGI,CCRF-CEM leukemia,3.11 µM
same,GI50,DU-145 prostate,16.3 µM
same,TGI,DU-145 prostate,> 100 µM
same,GI50,HL-60(TB) leukemia,0.0546 µM
same,TGI,HL-60(TB) leukemia,1.19 µM
same,GI50,TK-10 renal,12.5 µM
same,TGI,TK-10 renal,58.6 µM
same,GI50,NCI-H322M lung,24.7 µM
same,TGI,NCI-H322M lung,> 100 µM
same,GI50,HOP-62 NSCLC,5.87 µM
same,TGI,HOP-62 NSCLC,29.3 µM
same,GI50,UACC-257 melanoma,10.1 µM
same,TGI,UACC-257 melanoma,28.5 µM
